Assay [1] has as its system Puccinia recondita f. sp. tritici. As to the kind of experiment: Example B15: Puccinia recondita f. sp. tritici / wheat / leaf disc preventative (brown rust). In kind it is in vivo. The settings on record: 200 ppm, compared to untreated control. The method, then:
Example B15: Puccinia recondita f. Sp. Tritici/Wheat/Leaf Disc Preventative (Brown Rust)
Wheat leaf segments cv. Kanzler are placed on agar in multiwell plates (24-well format) and sprayed with the formulated test compound diluted in water. The leaf disks are inoculated with a spore suspension of the fungus 1 day after application. The inoculated leaf segments are incubated at 19° C. and 75% rh under a light regime of 12 h light/12 h darkness in a climate cabinet and the activity of a compound is assessed as percent disease control compared to untreated when an appropriate level of disease damage appears in untreated check leaf segments (7-9 days after application).

The test system of assay [2] is Botryotinia fuckeliana (Botrytis cinerea). As to the kind of experiment: Example B2: Botryotinia fuckeliana (Botrytis cinerea) / liquid culture (gray mould). The format is cell-based. The settings on record: compared to untreated control. The method, then: Example B2: Botryotinia fuckeliana (Botrytis cinerea)/Liquid Culture (Gray Mould)
Conidia of the fungus from cryogenic storage are directly mixed into nutrient broth (Vogels broth). After placing a (DMSO) solution of test compound into a microtiter plate (96-well format), the nutrient broth containing the fungal spores is added. The test plates are incubated at 24° C. and the inhibition of growth is determined photometrically 3-4 days after application.

In assay [3] the test system is Glomerella lagenarium (Colletotrichum lagenarium). As to the kind of experiment: Example B5: Glomerella lagenarium (Colletotrichum lagenarium) / liquid culture (anthracnose). The settings on record: Colletotrichum orbiculare, compared to untreated control. The format is cell-based. The method, then:
Example B5: Glomerella Lagenarium (Colletotrichum Lagenarium)/Liquid Culture (Anthracnose)
Conidia of the fungus from cryogenic storage are directly mixed into nutrient broth (PDB potato dextrose broth). After placing a (DMSO) solution of test compound into a microtiter plate (96-well format), the nutrient broth containing the fungal spores is added. The test plates are incubated at 24° C. and the inhibition of growth is measured photometrically 3-4 days after application.

Assay [4] has as its system Blumeria graminis f. sp. tritici (Erysiphe graminis f. sp. tritici). As to the kind of experiment: Example B7: Blumeria graminis f. sp. tritici / wheat / leaf disc preventative (powdery mildew on wheat). The format is in vivo. The settings on record: foliar, compared to untreated control. Here is the method: Example B7: Blumeria Graminis f. Sp. Tritici (Erysiphe graminis f. Sp. Tritici)/Wheat/Leaf Disc Preventative (Powdery Mildew on Wheat)
Wheat leaf segments cv. Kanzler are placed on agar in a multiwell plate (24-well format) and sprayed with the formulated test compound diluted in water. The leaf disks are inoculated by shaking powdery mildew infected plants above the test plates 1 day after application. The inoculated leaf disks are incubated at 20° C. and 60% rh under a light regime of 24 h darkness followed by 12 h light/12 h darkness in a climate chamber and the activity of a compound is assessed as percent disease control compared to untreated when an appropriate level of disease damage appears on untreated check leaf segments (6-8 days after application).

Assay [5] has as its system Fusarium culmorum. As to the kind of experiment: microbe, parasite or virus in culture. In kind it is cell-based. The settings on record: read-out: control of Fusarium culmorum.
Assay [6] relates to Monographella nivalis (Microdochium nivale). Briefly: Example B12: Monographella nivalis (Microdochium nivale) / liquid culture (foot rot cereals). The format is cell-based. The following applies: compared to untreated control. Here is the method: Example B12: Monographella Nivalis (Microdochium Nivale)/Liquid Culture (Foot Rot Cereals)
(§1) Conidia of the fungus from cryogenic storage are directly mixed into nutrient broth (PDB potato dextrose broth). After placing a (DMSO) solution of test compound into a microtiter plate (96-well format), the nutrient broth containing the fungal spores is added. The test plates are incubated at 24° C. and the inhibition of growth is determined photometrically 4-5 days after application.

The subject of assay [7] is Mycosphaerella arachidis (Cercospora arachidicola). Briefly: Example B13: Mycosphaerella arachidis (Cercospora arachidicola) / liquid culture (early leaf spot). In kind it is cell-based. The settings on record: compared to untreated control. Here is the method:
Example B13: Mycosphaerella arachidis (Cercospora arachidicola)/Liquid Culture (Early Leaf Spot)
as §1

For assay [8], the system named is Mycosphaerella graminicola (Septoria tritici). Briefly: Example B19: Mycosphaerella graminicola (Septoria tritici) / liquid culture (Septoria blotch). The following applies: Zymoseptoria tritici, compared to untreated control. The format is cell-based. The method, then:
Example B19: Mycosphaerella graminicola (Septoria tritici)/Liquid Culture (Septoria Blotch)
as §1

For assay [9], the system named is Pyrenophora teres. As to the kind of experiment: Example B17: Pyrenophora teres / barley / leaf disc preventative (net blotch). The format is in vivo. The following applies: foliar, compared to untreated control. The method, then: Example B17: Pyrenophora teres/Barley/Leaf Disc Preventative (Net Blotch)
Barley leaf segments cv. Hasso are placed on agar in a multiwell plate (24-well format) and sprayed with the formulated test compound diluted in water. The leaf segments are inoculated with a spore suspension of the fungus 2 days after application. The inoculated leaf segments are incubated at 20° C. and 65% rh under a light regime of 12 h light/12 h darkness in a climate cabinet and the activity of a compound is assessed as disease control compared to untreated when an appropriate level of disease damage appears in untreated check leaf segments (5-7 days after application).

This note sets out measurements from patent US20260223852A1, “FUNGICIDAL COMPOSITIONS” (SYNGENTA CROP PROTECTION AG, priority 2023, published 2026).

For `Cn1cc(C(C)(CNC(=O)c2cc(-c3ccc(F)cc3F)on2)c2cccc(Cl)n2)cn1` (centres unmarked) [X.01, N-[2-(6-chloro-2-pyridyl)-2-(1-methylpyrazol-4-yl)propyl]-5-(2,4-difluorophenyl)isoxazole-3-carboxamide], the “control of Puccinia recondita f. sp. tritici” value in [1] is “at least 80%”.
Consider `Cn1cc(C(C)(CNC(=O)c2cc(-c3ncc(F)cc3F)on2)c2cccc(Cl)n2)cn1` (centres unmarked) [X.11, N-[2-(6-chloro-2-pyridyl)-2-(1-methylpyrazol-4-yl)propyl]-5-(3,5-difluoro-2-pyridyl)isoxazole-3-carboxamide], for which the inhibition of growth at 20 ppm in assay [2], in assay [3], in assay [5], in [6], in assay [7] and in assay [8] was no less than 80% in each case. In addition, the pest or weed control at 200 ppm in assay [4] is no less than 80%.
`Cn1cc(C(C)(CNC(=O)c2nnc(-c3ncc(F)cc3F)s2)c2cccc(C#N)n2)cn1` (centres unmarked) [X.14, N-[2-(6-cyano-2-pyridyl)-2-(1-methylpyrazol-4-yl)propyl]-5-(3,5-difluoro-2-pyridyl)-1,3,4-thiadiazole-2-carboxamide]: the inhibition of growth at 20 ppm in [2], in assay [3] and in assay [8] was no less than 80% each time. Further, the pest or weed control at 200 ppm in assay [4] and in assay [9] was no less than 80% each time.
As for `Cn1cc(C(C)(CNC(=O)c2nnc(-c3ncc(F)cc3F)s2)c2cccc(Cl)n2)cn1` (centres unmarked) [X.15, N-[2-(6-chloro-2-pyridyl)-2-(1-methylpyrazol-4-yl)propyl]-5-(3,5-difluoro-2-pyridyl)-1,3,4-thiadiazole-2-carboxamide], the inhibition of growth at 20 ppm in assay [2], in assay [3], in [5], in assay [6], in [7] and in assay [8] was no less than 80% throughout. In addition, the pest or weed control at 200 ppm in assay [4] and in assay [9] was no less than 80% throughout.
For the molecule `Cn1cc(C(C)(CNC(=O)c2nnc(-c3ccc(F)nc3F)s2)c2cccc(Cl)n2)cn1` (centres unmarked) [X.16, N-[2-(6-chloro-2-pyridyl)-2-(1-methylpyrazol-4-yl)propyl]-5-(2,6-difluoro-3-pyridyl)-1,3,4-thiadiazole-2-carboxamide], the inhibition of growth at 20 ppm in assay [2], in [3], in [6], in assay [7] and in assay [8] was no less than 80% each time.
